Data on seven compounds can be found in publication PMC3816717 (Bioorganic & medicinal chemistry, 2011).

One experiment deals with T1, hCD22 (Homo sapiens, UniProt P20273).
T1 sequence (P20273 20-326 limits assumed): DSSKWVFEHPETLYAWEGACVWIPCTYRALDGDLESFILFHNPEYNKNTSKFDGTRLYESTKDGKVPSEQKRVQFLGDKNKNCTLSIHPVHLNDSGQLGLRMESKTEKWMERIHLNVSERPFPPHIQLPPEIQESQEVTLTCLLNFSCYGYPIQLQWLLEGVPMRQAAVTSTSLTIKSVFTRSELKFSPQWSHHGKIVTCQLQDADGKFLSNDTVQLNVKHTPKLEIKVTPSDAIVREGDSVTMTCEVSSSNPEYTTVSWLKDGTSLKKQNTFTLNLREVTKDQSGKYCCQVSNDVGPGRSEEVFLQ
Description: Competition ELISA. Format: binding. In general terms: ELISA stands for enzyme-linked immunosorbent assay.

In another experiment the target is mCD22 (Mus musculus, UniProt P35329). Description: Competition ELISA with biotinylated form of 1, mCD22Fc. It counts as binding, murine.

For `COc1ccc(O[C@@H]2O[C@H](CO[C@]3(C(=O)O)C[C@H](O)[C@@H](NC(=O)CO)[C@H]([C@H](O)[C@H](O)CNC(=O)Cc4ccc(-c5ccc(O)cc5)cc4)O3)[C@H](O)[C@H](O)[C@H]2O)cc1` [Compound 1, 9-(4'-hydroxy-4-biphenyl)acetamido-9-deoxy-Neu5Gcα2-6GalOMP, reference compound], at hCD22, the IC50 is 3270 ± 620 nM.
On the same count and under the same terms, next, `COc1ccc(O[C@@H]2O[C@H](CO[C@]3(C(=O)O)C[C@H](O)[C@@H](NC(=O)CO)[C@H]([C@H](O)[C@H](O)CNCc4ccc(-c5ccc(O)cc5)cc4)O3)[C@H](O)[C@H](O)[C@H]2O)cc1` [Compound 2, 9-(4'-hydroxy-4-biphenyl)methylamino-9-deoxy-Neu5Gcα2-6GalOMP, reference compound]: 3290 ± 330 nM; `O=C(Cc1ccc(-c2ccc(O)cc2)cc1)NC[C@@H](O)[C@@H](O)[C@@H]1O[C@@](OCc2ccccc2)(C(=O)O)C[C@H](O)[C@H]1NC(=O)CO` [Compound 5, benzyl 3,5,9-trideoxy-5-glycolamido-9-(4′-hydroxy-4-biphenyl)acetamido-D-glycero-α-D-galacto-2-nonulopyranosidonic acid]: 240 ± 50 nM; `O=C(Cc1ccc(-c2ccc(O)cc2)cc1)NC[C@@H](O)[C@@H](O)[C@@H]1O[C@@](OCc2ccc(-c3ccccc3)cc2)(C(=O)O)C[C@H](O)[C@H]1NC(=O)CO` [Compound 6]: 380 nM.
Regarding `O=C(Cc1ccc(-c2ccc(F)cc2)cc1)NC[C@@H](O)[C@@H](O)[C@@H]1O[C@@](OCc2ccccc2)(C(=O)O)C[C@H](O)[C@H]1NC(=O)CO` [Compound 7, Benzyl 3,5,9-trideoxy-5-glycolamido-9-(4′-fluoro-4-biphenyl)acetamido-D-glycero-α-D-galacto-2-nonulopyranosidonic acid], on mCD22, the “fold less potent than 5 for CD22” value was found to be 50 fold.
Compound `O=C(CO)N[C@H]1[C@H]([C@H](O)[C@H](O)CNCc2ccc(-c3ccc(O)cc3)cc2)O[C@@](OCc2ccccc2)(C(=O)O)C[C@@H]1O` [Compound 8, Benzyl 3,5,9-trideoxy-5-glycolamido-9-(4′-hydroxy-4-biphenyl)methylamino-D-glycero-α-D-galacto-2-nonulopyranosidonic acid] showed a 50% inhibitory concentration (IC50) on hCD22 of 2750 ± 1300 nM.
With `O=C(CO)N[C@H]1[C@H]([C@H](O)[C@H](O)CNCc2ccc(-c3ccc(O)cc3)cc2)O[C@@](OCc2ccc(-c3ccccc3)cc2)(C(=O)O)C[C@@H]1O` [Compound 9, (4-Biphenyl)methyl 3,5,9-trideoxy-5-glycolamido-9-(4′-hydroxy-4-biphenyl) methylamino-D-glycero-α-D-galacto-2-nonulopyranosidonic acid], on hCD22, the IC50 was determined as 2240 ± 280 nM.

By IC50 is commonly meant the concentration needed to halve the response being measured. High values mean a need for much substance, low ones inhibition by little substance.
